These results are taken from patent publication US10416175B2, “Opioid detection” (Randox Laboratories Limited, priority 2015, dated 2019).

Data set [1] relates to antibody raised against Immunogen-2. Briefly: Competitive ELISA with polyclonal antibody raised against Immunogen-2, Tracer-1 as detecting agent. The format is binding, sheep. Conditions: for % CR: relative to O-desmethyltramadol = 100. How it is done:
Pre-immunization blood samples are collected from sheep. In order to generate polyclonal antisera, 2 mgs of the immunogen (structure 1) is prepared in PBS, mixed at a ratio of 50% immunogen in PBS to 50% Freund's Complete adjuvant (Sigma, Product Number F5881) and emulsified by repeatedly passing the mixture through a tip on the end of a 1 ml syringe, until it reaches the required semi-solid consistency. 1.1 ml of the emulsified mixture is injected intramuscularly into each host animal (sheep) as the primary immunisation dose. Further injections (boosts) are prepared (1 mg of immunogen is prepared in PBS and mixed at a ratio of 50% Immunogen in PBS/50% Freunds Incomplete adjuvant, Sigma, Product Number—F5506). Boost injections are delivered intramuscularly at monthly intervals, 1 ml per animal. Serum is sampled monthly by collection of whole blood from the jugular vein for evaluation of the antibody titre. The degree of antibody purification required depends on the intended application. For many purposes, there is no requirement for purification of the serum, however, in other cases, such as, where the antibody is to be immobilised on a solid support, purification steps (such as caprylic acid/ammonium sulphate precipitation) can be taken to remove undesired material and eliminate non-specific binding. In another embodiment, the purification is by immunoglobulin precipitation, antigen-specific affinity purification, column chromatography, such as, size-exclusion chromatography or ion exchange chromatography.
The polyclonal antibody raised against Immunogen-2 of Example 9 was removed from fridge or freezer and brought to room temperature. The antibody was diluted to 2.5 μg/ml in 10 mM Tris pH 8.5 and all appropriate wells are coated at 125 μl/well at 37° C. for 2 hours or at 4° C. overnight. The plate was washed 4 times over a period of 10 minutes with working strength tris-buffered saline and tween 20 (TBST) wash buffer and tapped dry. 50 μl of working strength TBST was pipetted into the appropriate wells. Dilutions of target analyte and potential crossreactant(s) were prepared in working strength TBST and pipetted (50 μl) into the appropriate wells beginning with the lowest concentration to the highest concentration. Hapten-HRP (Tracer-1) conjugate at the appropriate concentration was prepared in conjugate dilution buffer and 75 μl into pipetted into appropriate wells. The plate was tapped gently to mix contents, sealed and incubated at 25° C. for 1 hour. The plate was washed 6 times over a 10-15 minute period (3 quick washes followed by 3 additional washes over 12 minutes) and tapped dry thoroughly onto tissue paper. Trimethylbenzidine (TMB) solution (125 μl) was added to each well and tapped gently, and the plate was incubated at room temperature for 20 minutes in the dark. The reaction was stopped by addition of 125 μl of 0.2 M sulphuric acid to each well and the absorbance measured at 450 nm using an ELISA plate reader (Biotek Elx800).

For data set [2], the system named is Randox Tramadol commercial immunoassay. Conditions: cited from earlier work.
Data set [3] relates to Bio-Quant Tramadol commercial immunoassay. Conditions: cited from earlier work.
Data set [4] has as its system Immunanalysis Tramadol commercial immunoassay. Conditions: cited from earlier work.
Data set [5] relates to Neogen Tramadol commercial immunoassay. Conditions: cited from earlier work.
Data set [6] relates to IDS Tramadol commercial immunoassay. Conditions: cited from earlier work.
For data set [7] the following is noted: over 24-72 hours, following oral administration of tramadol; cited from earlier work.
Data set [8] concerns antibody specific to mitragynine. As to the kind of experiment: ELISA for mitragynine and 8-desmethylmitragynine (polyclonal antibody to mitragynine). The format is binding. Conditions: for % CR: based on 100% specificity to mitragynine; for IC50: standard concentration which produces 50% B/B0. From the text: In one embodiment, the antibodies and immunoassay methods and kits for mitragynine (kratom), are as described in U.S. patent application Ser. No. 14/184,422, filed Feb. 19, 2014 entitled “Immunoassay for Detecting Kratom, its Constituents and their Use” the entire contents of which are incorporated herein by reference. In particular, U.S. patent application Ser. No. 14/184,422 describes a polyclonal antibody which that binds specifically to an epitope of one or more of mitragynine, 8-desmethylmitragynine, 8-sulphonylmitragynine, and 8-glucuronidylmitragynine which was raised to an immunogen having the structure of:
[drawing 5] • wherein HRP is horseradish peroxidase.
(In general: ELISA stands for enzyme-linked immunosorbent assay.)

Data set [9] has the same test system. Conditions: polyclonal antibody of U.S. application 14/184,422, based on 100% to mitragynine; cited from earlier work.
Setting [10] is: antibodies from three sheep immunised with Immunogen-2.

Converted amounts (≈) assume the structure as drawn. “And” between values parts separate entries of the source, which are not always exact repeats. Equal entries are not always repeated. Structures can show the parent of a compound that is named as a salt.

Consider `CNC[C@@H]1CCCC[C@@]1(O)c1cccc(OC)c1` (racemic) [N-Desmethyltramadol, (±)-cis-2-[(methylamino)methyl]-1-(3-methoxyphenyl)cyclohexanol], for which the B/Bo in data set [1] (0.156 ng/ml analyte) worked out at 97; in data set [1] (0.313 ng/ml analyte) it was 98; in data set [1] (0.625 ng/ml analyte), 99; in data set [1] (1.250 ng/ml analyte), 100; in data set [1] (2.500 ng/ml analyte), 99; in data set [1] (5.000 ng/ml analyte), 97. The molecule further registered a B/Bo in data set [1] (10.000 ng/ml analyte) of 98. For the same molecule, the “cross-reactivity (in words)” value in data set [1] (setting [10]) is recorded as “no cross-reactivity”. Besides, the IC50 (as a rule, the concentration that gives 50% inhibition) in data set [1] (antibody raised against Immunogen-2, Tracer-1) is >>10 ng/ml. For the same molecule, in [1] (at the concentrations tested (Table 2)), the “binding (in words)” value is listed as “no appreciable binding”. For the same molecule, the “% CR” value in data set [1] is <<1.78%. The “% Cross-reactivity” value in [2] is reported as 4%; in data set [3], under 5%; in data set [4] it was 44%; in data set [5], 6%; in data set [6], under 2%. The Urinary excretory amount in [7] was 2-31%.

For the molecule `COc1cccc([C@]2(O)CCCC[C@H]2CN(C)C)c1` (racemic) [Tramadol, (±)-cis-2-[(dimethylamino)methyl]-1-(3-methoxyphenyl)cyclohexanol hydrochloride], the Urinary excretory amount in [7] is 12-32%.

As to `CC[C@@H]1CN2CCc3c([nH]c4cccc(O)c34)[C@@H]2C[C@@H]1/C(=C\OC)C(=O)OC` [8-Desmethylmitragynine, 8-desmethylmitragynine], the B/Bo in data set [8] (0.313 ng/ml analyte) was determined as 74; in [8] (0.625 ng/ml analyte) it was 63; in data set [8] (1.250 ng/ml analyte), 54; in data set [8] (2.500 ng/ml analyte), 42; in [8] (5.000 ng/ml analyte), 29; in data set [8] (10.000 ng/ml analyte) it was 18. The molecule also came in with a B/Bo in data set [8] (20.000 ng/ml analyte) of 13. Also, in data set [8], the “% CR” value turned out to be 77.87%. In data set [8], this molecule showed an IC50 of 1.532 ng/mL (≈ 3.98 nM). Besides, the cross-reactivity result in [9] is “about 77.87%”.

Consider `CC[C@@H]1CN2CCc3c([nH]c4cccc(OC)c34)[C@@H]2C[C@@H]1/C(=C\OC)C(=O)OC` [Mitragynine, mitragynine], for which the B/Bo in data set [8] (0.313 ng/ml analyte) was determined as 75; in data set [8] (0.625 ng/ml analyte) it was 63; in [8] (1.250 ng/ml analyte), 49; in data set [8] (2.500 ng/ml analyte), 37; in data set [8] (5.000 ng/ml analyte), 25; in [8] (10.000 ng/ml analyte) it was 17. Also, the B/Bo in [8] (20.000 ng/ml analyte) is 11. In addition, the “% CR” value in [8] amounted to 100.00%. This molecule also gave an IC50 in data set [8] of 1.193 ng/mL (≈ 2.99 nM). In addition, in data set [9], the cross-reactivity is on record as 100%.

Take “(±)-cis-2-[(dimethylamino)methyl]-1-(3 hydroxyphenyl)-cyclohexanol [O-Desmethyltramadol]”: the B/Bo in [1] (0.156 ng/ml analyte) turned out to be 53; in [1] (0.313 ng/ml analyte), 37; in data set [1] (0.625 ng/ml analyte) it was 24; in data set [1] (1.250 ng/ml analyte), 16; in [1] (2.500 ng/ml analyte), 10; in data set [1] (5.000 ng/ml analyte), 6. Also, the B/Bo in [1] (10.000 ng/ml analyte) came out at 4. Further, the “IC50 of antibodies to O-desmethyltramadol” value in [1] (setting [10]) was 0.178 ng/mL and 0.181 ng/mL and 0.214 ng/mL. Besides, in data set [1], the “% CR” value was 100%. In addition, the “% Cross-reactivity” value in data set [2] was 57%; in data set [3], 100%; in data set [4] it was 6%; in data set [5], 27%; in data set [6], 40%. In addition, the Urinary excretory amount in [7] is given as 5-15%.
